PMC5053573, “Structure-Based Design of Tetrahydroisoquinoline-7-carboxamides as Selective Discoidin Domain Receptor 1 (DDR1) Inhibitors” (Journal of Medicinal Chemistry, 2016)

Key:
Assay in all cases: biochemical
Conditions in all cases: read-out: %Ctrl @ 1000nM
FGFR2 = FGFR2 (Homo sapiens, UniProt P21802)
EIF2AK1 = EIF2AK1 (Homo sapiens, UniProt Q9BQI3)
PRKD3 = PRKD3 (Homo sapiens, UniProt O94806)
FGFR1 = FGFR1 (Homo sapiens, UniProt P11362)
EPHA2 = EPHA2 (Homo sapiens, UniProt P29317)
CAMK4 = CAMK4 (Homo sapiens, UniProt Q16566)
FRK = FRK (Homo sapiens, UniProt P42685)
Sequence of FRK (P42685 whole entry): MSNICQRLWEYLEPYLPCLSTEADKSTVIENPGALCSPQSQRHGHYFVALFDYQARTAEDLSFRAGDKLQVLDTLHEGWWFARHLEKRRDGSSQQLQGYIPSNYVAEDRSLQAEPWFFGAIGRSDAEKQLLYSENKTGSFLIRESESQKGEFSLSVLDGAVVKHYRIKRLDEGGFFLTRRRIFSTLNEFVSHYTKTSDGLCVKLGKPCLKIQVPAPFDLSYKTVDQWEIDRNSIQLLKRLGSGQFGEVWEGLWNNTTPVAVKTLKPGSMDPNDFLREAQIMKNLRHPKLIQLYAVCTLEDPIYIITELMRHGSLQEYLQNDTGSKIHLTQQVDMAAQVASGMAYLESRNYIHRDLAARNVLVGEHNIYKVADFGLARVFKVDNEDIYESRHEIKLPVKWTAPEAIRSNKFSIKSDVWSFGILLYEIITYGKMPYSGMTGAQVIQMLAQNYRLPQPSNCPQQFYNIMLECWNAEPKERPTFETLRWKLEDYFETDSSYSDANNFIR

TESK1 = TESK1 (Homo sapiens, UniProt Q15569)
SGK3 = SGK3 (Homo sapiens, UniProt Q96BR1)
Sequence of SGK3 (Q96BR1 whole entry): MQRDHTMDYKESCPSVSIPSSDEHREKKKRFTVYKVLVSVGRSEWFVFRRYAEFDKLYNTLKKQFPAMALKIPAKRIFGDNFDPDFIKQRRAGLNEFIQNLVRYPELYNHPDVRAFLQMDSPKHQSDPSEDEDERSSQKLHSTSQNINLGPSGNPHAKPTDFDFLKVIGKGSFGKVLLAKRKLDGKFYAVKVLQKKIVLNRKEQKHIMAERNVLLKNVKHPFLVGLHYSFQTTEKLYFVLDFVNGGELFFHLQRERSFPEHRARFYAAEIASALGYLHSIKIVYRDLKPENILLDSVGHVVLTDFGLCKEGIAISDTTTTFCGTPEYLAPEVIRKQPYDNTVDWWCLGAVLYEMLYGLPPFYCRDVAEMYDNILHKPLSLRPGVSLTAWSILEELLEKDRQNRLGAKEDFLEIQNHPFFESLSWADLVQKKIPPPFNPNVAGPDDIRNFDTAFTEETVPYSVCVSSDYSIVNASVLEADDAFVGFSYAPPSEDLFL

INSRR = INSRR (Homo sapiens, UniProt P14616)
QSK = molecular target: T1, QSK (Homo sapiens, UniProt Q9Y2K2)
T1 construct: gene SIK3

RIOK1 = RIOK1 (Homo sapiens, UniProt Q9BRS2)
DCAMKL1 = molecular target: T2, DCAMKL1 (Homo sapiens, UniProt O15075)
T2 construct: gene DCLK1

MYLK2 = MYLK2 (Homo sapiens, UniProt Q9H1R3)
[1] = molecular target: ABL1(F317I)-nonphosphorylated (Homo sapiens, UniProt P00519, F317I)
STK39 = STK39 (Homo sapiens, UniProt Q9UEW8)
MLK2 = molecular target: T3, MLK2 (Homo sapiens, UniProt Q02779)
T3 construct: gene MAP3K10
T3 sequence (Q02779 whole entry): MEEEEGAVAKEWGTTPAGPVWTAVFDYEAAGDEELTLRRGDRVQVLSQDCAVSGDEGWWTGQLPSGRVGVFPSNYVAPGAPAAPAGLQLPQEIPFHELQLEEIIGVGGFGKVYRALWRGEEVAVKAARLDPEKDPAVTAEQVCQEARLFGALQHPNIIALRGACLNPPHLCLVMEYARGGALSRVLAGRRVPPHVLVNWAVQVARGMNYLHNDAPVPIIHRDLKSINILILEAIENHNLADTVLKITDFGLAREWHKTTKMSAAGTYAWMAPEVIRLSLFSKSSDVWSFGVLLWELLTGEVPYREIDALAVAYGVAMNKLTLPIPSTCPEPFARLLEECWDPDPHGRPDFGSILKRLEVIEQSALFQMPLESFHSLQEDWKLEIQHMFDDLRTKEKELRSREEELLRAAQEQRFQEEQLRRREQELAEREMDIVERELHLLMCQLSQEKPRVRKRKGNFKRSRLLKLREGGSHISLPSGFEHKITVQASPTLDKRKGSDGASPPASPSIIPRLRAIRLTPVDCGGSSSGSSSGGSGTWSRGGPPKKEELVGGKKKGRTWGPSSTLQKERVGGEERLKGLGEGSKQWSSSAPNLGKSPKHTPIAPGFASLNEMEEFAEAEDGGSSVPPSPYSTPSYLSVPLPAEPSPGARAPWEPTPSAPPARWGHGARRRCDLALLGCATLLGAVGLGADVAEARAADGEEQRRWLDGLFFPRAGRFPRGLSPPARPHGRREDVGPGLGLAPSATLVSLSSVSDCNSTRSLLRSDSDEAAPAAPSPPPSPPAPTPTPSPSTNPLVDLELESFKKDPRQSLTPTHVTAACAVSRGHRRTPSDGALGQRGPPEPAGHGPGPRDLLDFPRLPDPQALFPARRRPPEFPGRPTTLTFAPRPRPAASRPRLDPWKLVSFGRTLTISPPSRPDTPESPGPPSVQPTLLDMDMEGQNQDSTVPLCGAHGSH

PIK3CA(H1047Y) = PIK3CA(H1047Y) (Homo sapiens, UniProt P42336, H1047Y)
PRKCE = PRKCE (Homo sapiens, UniProt Q02156)
SYK = SYK (Homo sapiens, UniProt P43405)
SBK1 = SBK1 (Homo sapiens, UniProt Q52WX2)
DAPK2 = DAPK2 (Homo sapiens, UniProt Q9UIK4)
Sequence of DAPK2 (Q9UIK4 whole entry): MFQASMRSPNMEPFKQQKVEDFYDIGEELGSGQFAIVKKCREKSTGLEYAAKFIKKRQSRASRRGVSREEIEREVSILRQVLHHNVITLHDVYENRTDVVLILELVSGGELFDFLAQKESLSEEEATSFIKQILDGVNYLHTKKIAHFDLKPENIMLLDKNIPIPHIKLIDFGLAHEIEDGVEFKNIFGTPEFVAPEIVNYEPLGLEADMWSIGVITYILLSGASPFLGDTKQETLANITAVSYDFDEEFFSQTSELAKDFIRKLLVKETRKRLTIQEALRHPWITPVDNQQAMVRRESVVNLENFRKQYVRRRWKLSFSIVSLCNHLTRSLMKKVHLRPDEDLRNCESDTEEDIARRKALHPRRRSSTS

PRP4 = molecular target: T4, PRP4 (Homo sapiens, UniProt Q13523)
T4 construct: gene PRPF4B

CSNK2A1 = CSNK2A1 (Homo sapiens, UniProt P68400)
Sequence of CSNK2A1 (P68400 whole entry): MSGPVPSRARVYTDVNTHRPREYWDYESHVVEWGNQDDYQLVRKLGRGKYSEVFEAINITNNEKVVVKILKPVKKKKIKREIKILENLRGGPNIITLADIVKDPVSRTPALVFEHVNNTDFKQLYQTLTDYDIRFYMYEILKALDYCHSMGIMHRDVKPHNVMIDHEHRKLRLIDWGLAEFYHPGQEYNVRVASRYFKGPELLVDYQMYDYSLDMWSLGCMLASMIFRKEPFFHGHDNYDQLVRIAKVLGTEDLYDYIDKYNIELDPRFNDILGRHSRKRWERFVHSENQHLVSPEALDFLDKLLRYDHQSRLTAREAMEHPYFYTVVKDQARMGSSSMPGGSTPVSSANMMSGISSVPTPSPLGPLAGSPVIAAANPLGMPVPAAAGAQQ

DRAK2 = molecular target: T5, DRAK2 (Homo sapiens, UniProt O94768)
T5 construct: gene STK17B
T5 sequence (O94768 whole entry): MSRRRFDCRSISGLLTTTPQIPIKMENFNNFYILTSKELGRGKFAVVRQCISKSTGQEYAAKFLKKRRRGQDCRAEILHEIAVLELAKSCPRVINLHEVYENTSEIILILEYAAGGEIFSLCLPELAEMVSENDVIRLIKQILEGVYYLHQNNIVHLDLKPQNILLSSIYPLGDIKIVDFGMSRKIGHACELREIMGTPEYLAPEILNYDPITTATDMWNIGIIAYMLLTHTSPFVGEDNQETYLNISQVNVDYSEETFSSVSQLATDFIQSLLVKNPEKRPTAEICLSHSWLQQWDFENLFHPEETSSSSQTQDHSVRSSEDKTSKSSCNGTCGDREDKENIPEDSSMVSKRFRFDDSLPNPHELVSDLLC

[2] = molecular target: RPS6KA5(Kin.Dom.2-C-terminal) (Homo sapiens, UniProt O75582)
PRKG1 = PRKG1 (Homo sapiens, UniProt Q13976)
Sequence of PRKG1 (Q13976 whole entry): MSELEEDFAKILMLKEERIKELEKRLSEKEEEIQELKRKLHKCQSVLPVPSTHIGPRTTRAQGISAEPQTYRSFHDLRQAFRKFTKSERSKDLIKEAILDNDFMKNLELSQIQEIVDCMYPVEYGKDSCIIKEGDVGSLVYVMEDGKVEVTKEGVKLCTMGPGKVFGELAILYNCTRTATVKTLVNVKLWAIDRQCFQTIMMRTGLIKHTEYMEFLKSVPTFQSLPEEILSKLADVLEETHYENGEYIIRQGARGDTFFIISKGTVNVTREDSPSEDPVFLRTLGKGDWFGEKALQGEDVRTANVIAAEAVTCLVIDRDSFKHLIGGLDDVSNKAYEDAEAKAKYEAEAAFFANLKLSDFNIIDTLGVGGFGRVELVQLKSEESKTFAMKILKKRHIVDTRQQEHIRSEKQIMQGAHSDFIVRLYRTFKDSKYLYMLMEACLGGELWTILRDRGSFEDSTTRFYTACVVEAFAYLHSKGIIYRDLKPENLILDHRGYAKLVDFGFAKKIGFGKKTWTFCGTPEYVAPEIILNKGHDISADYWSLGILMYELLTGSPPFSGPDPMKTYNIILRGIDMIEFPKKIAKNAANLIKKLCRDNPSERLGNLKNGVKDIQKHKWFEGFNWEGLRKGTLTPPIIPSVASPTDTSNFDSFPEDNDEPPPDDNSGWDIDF

FLT3(ITD) = FLT3(ITD) (Homo sapiens, UniProt P36888, ITD)
TAOK1 = TAOK1 (Homo sapiens, UniProt Q7L7X3)
PIK3C2B = PIK3C2B (Homo sapiens, UniProt O00750)
CAMK2B = CAMK2B (Homo sapiens, UniProt Q13554)
Sequence of CAMK2B (Q13554 whole entry): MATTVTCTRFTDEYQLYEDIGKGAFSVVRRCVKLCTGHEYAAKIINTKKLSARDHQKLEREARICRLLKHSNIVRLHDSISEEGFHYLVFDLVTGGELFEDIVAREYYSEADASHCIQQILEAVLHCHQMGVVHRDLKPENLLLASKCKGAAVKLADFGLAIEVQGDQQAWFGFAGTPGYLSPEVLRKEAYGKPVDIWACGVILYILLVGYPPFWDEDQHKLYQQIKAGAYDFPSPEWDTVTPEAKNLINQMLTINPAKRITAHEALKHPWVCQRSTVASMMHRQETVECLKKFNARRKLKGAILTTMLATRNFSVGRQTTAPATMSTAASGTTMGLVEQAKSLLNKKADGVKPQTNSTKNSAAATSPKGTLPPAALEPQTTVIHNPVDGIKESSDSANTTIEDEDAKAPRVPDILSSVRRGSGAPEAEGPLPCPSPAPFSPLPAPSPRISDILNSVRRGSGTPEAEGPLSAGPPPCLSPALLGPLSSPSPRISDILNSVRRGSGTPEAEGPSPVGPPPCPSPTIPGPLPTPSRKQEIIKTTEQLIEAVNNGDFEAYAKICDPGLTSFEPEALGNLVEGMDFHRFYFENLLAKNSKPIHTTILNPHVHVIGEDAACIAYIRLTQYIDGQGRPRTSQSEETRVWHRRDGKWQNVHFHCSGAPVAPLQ

CLK4 = CLK4 (Homo sapiens, UniProt Q9HAZ1)
ERK4 = molecular target: T6, ERK4 (Homo sapiens, UniProt P31152)
T6 construct: gene MAPK4
T6 sequence (P31152 whole entry): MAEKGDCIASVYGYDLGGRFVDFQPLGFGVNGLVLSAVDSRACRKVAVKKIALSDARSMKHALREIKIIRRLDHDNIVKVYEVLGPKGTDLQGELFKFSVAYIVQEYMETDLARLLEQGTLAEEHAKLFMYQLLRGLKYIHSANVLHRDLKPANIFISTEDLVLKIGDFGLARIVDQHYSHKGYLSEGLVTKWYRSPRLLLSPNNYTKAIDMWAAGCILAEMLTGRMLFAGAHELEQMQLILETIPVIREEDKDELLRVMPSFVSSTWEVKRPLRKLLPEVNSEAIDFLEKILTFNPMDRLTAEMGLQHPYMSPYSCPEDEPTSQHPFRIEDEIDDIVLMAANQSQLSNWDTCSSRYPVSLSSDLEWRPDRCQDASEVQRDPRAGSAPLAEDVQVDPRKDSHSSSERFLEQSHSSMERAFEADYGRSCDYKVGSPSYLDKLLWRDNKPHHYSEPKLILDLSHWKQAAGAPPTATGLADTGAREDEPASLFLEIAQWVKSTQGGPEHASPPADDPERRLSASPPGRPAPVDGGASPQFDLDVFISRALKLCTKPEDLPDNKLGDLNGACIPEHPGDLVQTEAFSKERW

PIP5K2C = molecular target: T7, PIP5K2C (Homo sapiens, UniProt Q8TBX8)
T7 construct: gene PIP4K2C

DLK = molecular target: T8, DLK (Homo sapiens, UniProt Q12852)
T8 construct: gene MAP3K12

remaining activity at 1 µM (FGFR2): 74%
remaining activity at 1 µM (EIF2AK1): 92%
remaining activity at 1 µM (PRKD3): 100%
remaining activity at 1 µM (FGFR1): 79%
remaining activity at 1 µM (EPHA2): 65%
remaining activity at 1 µM (CAMK4): 86%
remaining activity at 1 µM (FRK): 63%
remaining activity at 1 µM (TESK1): 98%
remaining activity at 1 µM (SGK3): 100%
remaining activity at 1 µM (INSRR): 100%
remaining activity at 1 µM (QSK): 94%
remaining activity at 1 µM (RIOK1): 100%
remaining activity at 1 µM (DCAMKL1): 100%
remaining activity at 1 µM (MYLK2): 100%
remaining activity at 1 µM [1]: 80%
remaining activity at 1 µM (STK39): 100%
remaining activity at 1 µM (MLK2): 98%
remaining activity at 1 µM (PIK3CA(H1047Y)): 45%
remaining activity at 1 µM (PRKCE): 100%
remaining activity at 1 µM (SYK): 93%
remaining activity at 1 µM (SBK1): 100%
remaining activity at 1 µM (DAPK2): 94%
remaining activity at 1 µM (PRP4): 100%
remaining activity at 1 µM (CSNK2A1): 100%
remaining activity at 1 µM (DRAK2): 97%
remaining activity at 1 µM [2]: 100%
remaining activity at 1 µM (PRKG1): 81%
remaining activity at 1 µM (FLT3(ITD)): 71%
remaining activity at 1 µM (TAOK1): 100%
remaining activity at 1 µM (PIK3C2B): 100%
remaining activity at 1 µM (CAMK2B): 95%
remaining activity at 1 µM (CLK4): 96%
remaining activity at 1 µM (ERK4): 93%
remaining activity at 1 µM (PIP5K2C): 100%
remaining activity at 1 µM (DLK): 100%
Structure (SMILES): Cc1cn(-c2cc(NC(=O)c3ccc4c(c3)CN(c3cncnc3)C[C@@H]4C)cc(C(F)(F)F)c2)cn1 [Compound 6j]
